Patent US12029712B2 (Sun Pharmaceutical Industries, Inc., priority 2017, dated 2024)

Legend:
[1] = Pharmacokinetic profile of Compound 100 versus non-deuterated D-serine, 150 mg/kg PO; format: in vivo, male Sprague-Dawley rats
From the text: (§1) The pharmacokinetic profile of Compound 100 was investigated in male Sprague-Dawley rats compared with that of non-deuterated D-serine. […] Plasma was collected and analyzed for Compound 100 and non-deuterated D-Serine. Additional blood was collected and analyzed for the full clinical chemistry profile.

rats = test: Nephrotoxicity comparison at doses from 150 mg/kg to 750 mg/kg (dose escalation); format: in vivo; conditions: for BUN / creatinine: doses from 150 mg/kg to 750 mg/kg, PO
[2] = Pharmacokinetics of deuterated and non-deuterated D-serine, PO 10 mg/kg; format: in vivo, male Sprague Dawley rats
Experimental: Three rats were used for each group. Blood was collected at the following time points: for IV dosing: pre-dose, 0.05, 0.167, 0.5, 1, 2, 4, 6, 8 and 12 hours post-dose; for PO dosing: pre-dose, 0.25, 0.5, 1, 2, 4, 6, 8 and 12 hours post-dose PO. Urine was collected at pre-dose (minimum 12 hours), 0-6, 6-12 and 12-24 hours. Plasma samples were analyzed and quantified for dosed compound LC-MS/MS.

[3] = target: T1, human NMDAR subunits GluN1 and GluN2A (Homo sapiens, UniProt Q05586); test: NMDA receptor activation in automated patch clamp system (ScreenPatch); format: cell-based; conditions: HEK293 cells, 0.003 to 10 μM
T1 construct: expressed in transfected cells; host or cells: HEK293
Experimental: Peak current and steady state current were measured. The activity at the NMDA receptor was indistinguishable for the two compounds.

[4] = Brain distribution of Compound 100 24 hours after a single 100 mg/kg PO dose; format: in vivo, male Sprague-Dawley rats
Experimental: The distribution profile of Compound 100 was investigated in male Sprague-Dawley rats. […] At 24 hours after dosing, tissues from perfused brain and plasma were collected and analyzed by LC-MS.

Male Sprague-Dawley Rats [5] = test: Nephrotoxicity of Compound 100 and non-deuterated D-serine, 150 mg/kg PO (BUN, creatinine, GGT); format: in vivo
From the text: as §1

Male Sprague-Dawley Rats [6] = test: Nephrotoxicity dose response of non-deuterated D-serine, 30 to 300 mg/kg PO; format: in vivo; conditions: 24 hr samples, 150 and 300 mg/kg doses, versus control and reference values
From the text: The pharmacokinetic profile of non-deuterated D-serine was investigated in male Sprague-Dawley rats. […] Plasma was collected and analyzed for the non-deuterated D-serine. Additional blood was collected and analyzed for the full clinical chemistry profile.

[7] = dose escalation 150 mg/kg to 750 mg/kg

Row | Cmax and AUCinf compared with non-deuterated D-serine [1] | course of concentration in hippocampus ([1]; at 24 hr) | course of concentrations in plasma and cortex ([1]; within 24 hr) | Tmax compared with non-deuterated D-serine [2] | activity at the NMDA receptor (peak current and steady state current) [3] | concentration in the cortex compared with plasma or other brain locations [4] | SMILES | exposure as measured by AUC and Cmax, compared with non-deuterated D-serine (rats; [7]) | gross signs of nephrotoxicity (rats; [7]) | BUN (rats) | creatinine (rats) | blood urea nitrogen (BUN) level (Male Sprague-Dawley Rats [5]; 8 hr and 24 hr serum samples) | creatinine level (Male Sprague-Dawley Rats [5]; 24 hr serum samples) | gamma glutamyl transferase (GGT) level (Male Sprague-Dawley Rats [5]; 24 hr serum samples) | creatine level (Male Sprague-Dawley Rats [6]) | gamma glutamyl transferase (GGT) level (Male Sprague-Dawley Rats [6]) | urea nitrogen level (Male Sprague-Dawley Rats [6])
1 | similar | remained steady | decreased | similar | indistinguishable | greater | [2H][C@@](N)(CO)C(=O)O [Compound 100, (2R)-2-amino-2-deutero-3-hydroxy-propanoic acid] | greater | not Compound 100 | minimal changes | minimal changes |  |  |  |  |  | 
2 |  |  |  |  | indistinguishable |  | N[C@H](CO)C(=O)O [Non-deuterated D-Serine, D-serine] |  | only observed in rats receiving non-deuterated D-serine | increasingly elevated levels | increasingly elevated levels | Elevated | Elevated | Elevated | Elevated | Elevated | Elevated
